Measured values taken from patent US20240218022A1, “ANTI-VISTA MACROCYCLIC PEPTIDES AND COMPOSITIONS” (BRISTOL-MYERS SQUIBB COMPANY, priority 2022, published 2024).
Like-named read-outs stand apart in the source and are kept apart here. Starred links: 1 amine or outer side, 2 acyl side, 3 side chain; linkers in the order of their positions; H or OH if unused. Positions of bridges follow the written chain, without caps; N, C: chain ends. Non-standard residues stand in square brackets, D forms with d. Residues, ends and D or L forms follow the SMILES beside them. Morpholine(3S-CO) = O=C(O)[C@@H]1COCCN1; γGlu = O=C(O)[C@H](CCC(=O)[*:2])N[*:1]; 2Nal = N[C@@H](Cc1ccc2ccccc2c1)C(=O)O; βAsp = O=C(O)[C@H](CC(=O)[*:2])N[*:1]; Ahp(2) = CCCCC[C@H](N)C(=O)O; NMeNle = CCCC[C@H](NC)C(=O)O; Tle = CC(C)(C)[C@H](N)C(=O)O; NMeV = CN[C@H](C(=O)O)C(C)C; NHexGly = CCCCCCNCC(=O)O; Nle = CCCC[C@H](N)C(=O)O; Aun = NCCCCCCCCCCC(=O)O; AEEA = NCCOCCOCC(=O)O

Target: T1, mouse VISTA (mVISTA) (Mus musculus, UniProt Q9D659)
T1 construct: expressed in transfected cells; host or cells: Human embryonic kidney 293T cells
T1 sequence (Q9D659 33-308): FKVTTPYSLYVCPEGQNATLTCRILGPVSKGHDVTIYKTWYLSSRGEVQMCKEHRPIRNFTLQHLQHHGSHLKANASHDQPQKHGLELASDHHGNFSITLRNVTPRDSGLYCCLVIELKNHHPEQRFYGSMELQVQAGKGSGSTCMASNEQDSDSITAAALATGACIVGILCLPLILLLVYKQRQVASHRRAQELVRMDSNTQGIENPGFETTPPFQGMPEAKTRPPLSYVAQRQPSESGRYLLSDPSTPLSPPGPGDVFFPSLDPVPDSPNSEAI
Experiment: Cell-Based Binding High-Content Assay For mVISTA (HC CBA mVISTA)
Conditions: read-out: HC CBA mVISTA IC50
Outline: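 Competition of compound with a biotinylated peptide (final 2 nM, 30 min at RT) for binding to mVISTA on 293T cells, run under no-wash or wash (1 h compound preincubation then removal) formats. Readout by Alexa 647–streptavidin imaging on a high-content platform; four-parameter logistic fit gave IC50.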

[1] = 293T cells expressing mouse VISTA, competition with biotinylated peptide (2 nM)

SMILES | IC50 | IC50 [1] | further results
CCCCCCN1CC(=O)N[C@@H](Cc2ccc(O)cc2)C(=O)N[C@@H](CC(C)C)C(=O)NCC(=O)N[C@@H](CCCNC(=N)N)C(=O)N[C@@H](Cc2ccc(O)cc2)C(=O)N[C@@H](CCCCC)C(=O)N2CCC[C@H]2C(=O)N[C@@H](C(C)C)C(=O)N[C@@H](CO)C(=O)N[C@H](C(=O)NCC(N)=O)CSCC(=O)N[C@@H](Cc2ccc3ccccc3c2)C(=O)N[C@@H](Cc2ccc(O)cc2)C(=O)N[C@@H](CC(=O)O)C1=O [Ex 1297] ({CH2CO}-[2Nal]YD[NHexGly]YLGRY[Ahp(2)]PVSCG-NH2; thioether N-14) |  |  | IC50 (cell-based binding high-content assay, mVISTA, the 16th table): 35.7 nM
CCCCCCN1CC(=O)N[C@@H](Cc2ccc(O)cc2)C(=O)N[C@@H](CCCC)C(=O)N[C@@H](CC(N)=O)C(=O)N[C@@H](CCCNC(=N)N)C(=O)N(C)[C@@H](CCCC)C(=O)N[C@@H](CCCCC)C(=O)N2CCOC[C@H]2C(=O)N[C@@H](C(C)C)C(=O)N[C@@H](CO)C(=O)N[C@H](C(=O)N[C@@H](CC(=O)NCCOCCOCC(=O)NCCCCCCCCCCC(=O)O)C(=O)O)CSCC(=O)N[C@@H](Cc2ccccc2)C(=O)N[C@@H](Cc2c[nH]c3ccccc23)C(=O)N[C@@H](CC(=O)O)C1=O [Example 2193] ({CH2CO}-FWD[NHexGly]Y[Nle]NR[NMeNle][Ahp(2)][Morpholine(3S-CO)]VSC[βAsp][AEEA][Aun]-OH; thioether N-14) | 16.1 nM |  | 
CCCCCCN1CC(=O)N[C@@H](Cc2ccc(O)cc2)C(=O)N[C@@H](CCCC)C(=O)N[C@@H](CC(N)=O)C(=O)N[C@@H](CCCNC(=N)N)C(=O)N(C)[C@@H](CCCC)C(=O)N[C@@H](CCCCC)C(=O)N2CCC[C@H]2C(=O)N[C@@H](C(C)C)C(=O)N[C@@H](CC(=O)O)C(=O)N[C@H](C(=O)NCCOCCOCC(=O)N[C@@H](CC(=O)NCCOCCOCC(=O)NCCCCCCCCCCC(=O)O)C(=O)O)CSCC(=O)N[C@@H](Cc2ccc3ccccc3c2)C(=O)N[C@@H](Cc2c[nH]c3ccccc23)C(=O)N[C@@H](CC(=O)O)C1=O [Example 2200] ({CH2CO}-[2Nal]WD[NHexGly]Y[Nle]NR[NMeNle][Ahp(2)]PVDC[AEEA][βAsp][AEEA][Aun]-OH; thioether N-14) | 16.5 nM |  | 
CCCCCCN1CC(=O)N[C@@H](Cc2ccc(O)cc2)C(=O)N[C@@H](CCCC)C(=O)N[C@@H](CC(=O)O)C(=O)N[C@@H](CCCNC(=N)N)C(=O)N[C@@H](CC(C)C)C(=O)N[C@@H](CCCCC)C(=O)N2CCC[C@H]2C(=O)N[C@@H](C(C)C)C(=O)N[C@@H](CCCCC)C(=O)N[C@H](C(=O)NCC(=O)O)CSCC(=O)N[C@@H](Cc2ccccc2)C(=O)N[C@@H](Cc2ccc(O)cc2)C(=O)N[C@@H](CC(=O)O)C1=O [Example 1021] ({CH2CO}-FYD[NHexGly]Y[Nle]DRL[Ahp(2)]PV[Ahp(2)]CG-OH; thioether N-14) |  | 32.2 nM | 
CCCCCCN1CC(=O)N[C@@H](Cc2ccc(O)cc2)C(=O)N[C@@H](CC(C)C)C(=O)N[C@@H](CC(N)=O)C(=O)N[C@@H](CCCNC(=N)N)C(=O)N(C)[C@@H](C(C)C)C(=O)N[C@@H](CCCCC)C(=O)N2CCC[C@H]2C(=O)N[C@@H](C(C)(C)C)C(=O)N[C@@H](CO)C(=O)N[C@H](C(=O)NCCOCCOCC(=O)N[C@@H](CCC(=O)NCCOCCOCC(=O)NCCCCCCCCCCC(=O)O)C(=O)O)CSCC(=O)N[C@@H](Cc2ccccc2)C(=O)N[C@@H](Cc2ccc(O)cc2)C(=O)N[C@@H](CC(=O)O)C1=O [compound 2271] ({CH2CO}-FYD[NHexGly]YLNR[NMeV][Ahp(2)]P[Tle]SC[AEEA][γGlu][AEEA][Aun]-OH; thioether N-14) | 25.4 nM |  | 
CCCCCCN1CC(=O)N[C@@H](Cc2ccc(O)cc2)C(=O)N[C@@H](CCCC)C(=O)NCC(=O)N[C@@H](CCCNC(=N)N)C(=O)N[C@@H](CC(C)C)C(=O)N[C@@H](CCCCC)C(=O)N2CCC[C@H]2C(=O)N[C@@H](C(C)C)C(=O)N[C@@H](CCC(=O)O)C(=O)N[C@H](C(=O)NCC(=O)O)CSCC(=O)N[C@@H](Cc2ccccc2)C(=O)N[C@@H](Cc2ccc(O)cc2)C(=O)N[C@@H](CC(=O)O)C1=O [Example 1022] ({CH2CO}-FYD[NHexGly]Y[Nle]GRL[Ahp(2)]PVECG-OH; thioether N-14) |  | 41.5 nM | 
CCCCCCN1CC(=O)N[C@@H](Cc2ccc(O)cc2)C(=O)N[C@@H](CCCCC)C(=O)N[C@@H](CC(=O)O)C(=O)N[C@@H](CCCNC(=N)N)C(=O)N[C@@H](CC(C)C)C(=O)N[C@@H](CCCCC)C(=O)N2CCC[C@H]2C(=O)N[C@@H](C(C)C)C(=O)N[C@@H](CC(=O)O)C(=O)N[C@H](C(=O)N[C@@H](CCC(=O)O)C(N)=O)CSCC(=O)N[C@@H](Cc2ccccc2)C(=O)N[C@@H](Cc2ccc(O)cc2)C(=O)N[C@@H](CC(=O)O)C1=O [Example 1004] ({CH2CO}-FYD[NHexGly]Y[Ahp(2)]DRL[Ahp(2)]PVDCE-NH2; thioether N-14) |  | 12.9 nM | 
